This note sets out measurements from patent publication US8906865B2, “Treatment of inflammation and/or endotoxic shock” (ISIS Innovation Limited, priority 2007, dated 2014).

The test system of this assay is C57B16/J mice, zymosan-induced peritonitis. Put plainly: Zymosan-induced peritonitis in mice. It is filed as in vivo, mouse. The conditions noted are these: for Protection in vivo as judged by monocyte and neutrophil levels (FIG. 7C-D): same dose and time as C15. Details: Reduction of MCP-1 in peritoneal lavage fluid (FIG. 7F) / Reduction of KC in peritoneal lavage fluid (FIG. 7F) / Reduction of TNFα in peritoneal lavage fluid (FIG. 7F) / Reduction of IL-1β in peritoneal lavage fluid (FIG. 7F) / Reduction of IL-6 in peritoneal lavage fluid (FIG. 7F): concentration or dose not given beside the values. The procedure: FIGS. 7A and 7B—C57B16/J mice were dosed i.p with PBS or chemerin15 (0.32 ng/kg) followed by injection with PBS or zymosan (10 μg, ˜2×10^6 particles per cavity) 1 h later. Peritoneal exudate cells were harvested by peritoneal lavage at multiple time points (FIGS. 7A and 7B; 5-6 mice/treatment) or after 4 h (FIGS. 7C-7E; 6-15 mice/group). FIGS. 7C-7E—total cell numbers in lavage fluid were quantified and cellular composition (neutrophils vs mononuclear phagocytes) determined using FACS analysis. Cells were blocked with 2.4G2 anti-FcγRII/III and stained with Ly-6G-PE and 7/4-FITC. Gates were constructed around two populations, the neutrophils (N; 7/4high, Ly-6Ghigh) and inflammatory monocytes (Mo; 7/4high, Ly-6Glow). FIG. 7E—representative FACS plots are shown for each treatment group at 4 h post-zymosan. FIG. 7F—peritoneal lavage fluid was assayed for TNFα and KC by ELISA and IL-6, IL-1β and MCP-1 by Luminex assay. C15; Chemerin15, Z; Zymosan. ***, P<0.001; **, P<0.01 ** relative to zymosan-treated animals (Student's t test). FIG. 7G—Mice (6-8/treatment) were dosed i.p with zymosan (10 μg) and with C15 (8 pg) or PBS either 1 h beforehand (C15 pre-treatment) or 2 h later (C15 post-treatment). Peritoneal lavage was carried out 4 h post-zymosan challenge. Reference in this figure to the peptide C15 refers to the peptide described previously as C15m;
More specifically, male C57B16/J mice (8-12 weeks) were injected intra-peritoneally with 0.5 ml PBS or 0.5 ml Chemerin15-mouse (0.32 ng/kg) followed by injection with 0.5 ml PBS or Zymosan (2×10^6 particles per cavity) an hour later. After 4 hours animals were sacrificed and peritoneal cavities washed with 5 ml PBS-3 mM EDTA. Total cell counts were obtained using Trypan blue exclusion test. For determination of cellular composition (Neutrophils vs mononuclear phagocytes), cells were blocked with 2.4G2 mAB for 5 mins and stained with PE-conjugated anti-mouse Ly-6G and FITC-conjugated anti-mouse 7/4 mAB for 10 mins. Cells were fixed in 1% formaldehyde prior to FACS analysis with CellQuest software. Gates were constructed around two populations, the neutrophils (N; 7/4^high, Ly-6G^high) and inflammatory monocytes (Mo; 7/4^high). C15 refers to Chemerin15-mouse. Z refers to Zymosan. p<0.01 **; p<0.05 * relative to Zymosan-treated.
Neutrophil (7/4^high, Ly-6G^high), monocyte (7/4^high, Ly-6G^low) and resident macrophage populations (7/4^low, Ly-6G^low) were determined according to Gordon S and Taylor P R Nat Rev Immunol. 2005; 5(12):953; Taylor P R et al. Eur J Immunol. August 2003; 33(8):2090-2097; and Taylor P R et al. Eur J Immunol. July 2005; 35(7):2163-2174.
The above result was further investigated. To determine the anti-inflammatory properties of the C15 peptide in vivo a time-course experiment was performed extending over 48 h. Neutrophil (7/4high, Ly-6Ghigh) and monocyte (7/4high, Ly-6Glow) populations in peritoneal lavage fluid were determined by FACS analysis according to published protocols (Taylor, P. R. et al., (2005). Eur J Immunol 35:2163-2174; Taylor, P. R., (2003). Eur J Immunol 33:2090-2097). Administration of zymosan into the mouse peritoneal cavity produced a time-dependent extravasation of inflammatory cells into the peritoneal cavity, which followed the typical profile of an acute inflammatory response (FIG. 7A-B, solid line). Neutrophils were the first leukocytes to infiltrate the cavity, detectable at 2 h post-zymosan with peak neutrophilia occurring at 4 h (1.95×10^6 cells). Monocyte influx into the inflamed peritoneal cavity was first detectable after 4 h (0.69×10^6 cells), peaking at 24 h post-zymosan injection (1.25×10^6 cells) and declining thereafter. Pre-treatment with C15 at a dose of 8 pg/mouse (≈0.32 ng/kg) 1 h prior to zymosan challenge brought the peak neutrophilia forward to 2 h with approximately 50% the magnitude of that of zymosan challenged mice (reduced from 1.25×10^6 to 0.62×10^6 cells; FIG. 7A, dotted line). […]

Setting [1] is: 8 pg/mouse 1 h before zymosan, 4 h post-zymosan.
Where [2] appears, read: 0.32 ng/kg (8 pg/mouse) i.p. 1 h before zymosan, 4 h.
The mark [3] stands for this setting: C15 2 h post-zymosan, lavage 4 h post-zymosan.

Turning to “GLFHDQAGPPAGYEF (Scrambled C15) [C15-S, control peptide, scrambled C15, reference compound]”, the “Protection in vivo as judged by monocyte and neutrophil levels (FIG. 7C-D)” value is given as “not be protective”.

As for “AGEDPHGYALPGQAA (Mutant C15) [C15-M, control peptide, mutant C15 (F148A & F153A), reference compound]”, the “Protection in vivo as judged by monocyte and neutrophil levels (FIG. 7C-D)” value was “not be protective”.

Turning to “AGEDPHGYFLPGQFA (listed as Mus sp.) [C15]”, for the setting “8 pg/mouse 1 h before zymosan, 2 h post-zymosan”, the “Suppression of neutrophil infiltration (FIG. 7A)” value (shortened to “Suppression … (FIG. 7A)”) is 50%. In addition, under setting [1], the “Suppression … (FIG. 7A)” value came out at 66% and the “Suppression of peritoneal monocytes (FIG. 7B)” value (shortened to “Suppression … (FIG. 7B)”) is recorded as 63%. For the same sequence, for the setting “8 pg/mouse 1 h before zymosan, 8 h post-zymosan”, the “Suppression … (FIG. 7B)” value stood at 61%. For the same sequence, the “Suppression … (FIG. 7A)” value (8 pg/mouse 1 h before zymosan, 24 h post-zymosan) is 50%. Further, the “Suppression … (FIG. 7B)” value (8 pg/mouse 1 h before zymosan, 48 h post-zymosan) was 64%. In addition, the “Peritoneal neutrophils at 2 h (peak neutrophilia under C15)” value (8 pg/mouse 1 h before zymosan, zymosan alone 1.25×10^6) is 0.62×10^6 cells. Besides, the “Time of peak neutrophilia” value (8 pg/mouse 1 h before zymosan, zymosan alone 4 h) came out at 2 h. Further, under setting [2], the “Reduction of Zymosan-elicited monocyte recruitment (FIG. 6)” value turned out to be 42% and the “Reduction of Zymosan-elicited neutrophil recruitment (FIG. 6)” value is recorded as 52%. For the same sequence, under “0.32 ng/kg i.p. 1 h before zymosan”, the “Levels of TNFα in zymosan-treated mice (FIG. 6)” value was “reduced”. For the same sequence, the “Rate of monocyte influx into the inflamed cavity” value (2-4 h post-zymosan, zymosan alone 0.51×10^6/h) is 180000 h⁻¹. In addition, where the note is “4 h post-zymosan”, the “Reduction of IL-1β in peritoneal lavage fluid (FIG. 7F)” value came out at 67%, the “Reduction of IL-6 in peritoneal lavage fluid (FIG. 7F)” value was determined as 67%, the “Reduction of KC in peritoneal lavage fluid (FIG. 7F)” value was determined as 38% and the “Reduction of MCP-1 in peritoneal lavage fluid (FIG. 7F)” value was 59%. For the same sequence, the “Reduction of TNFα in peritoneal lavage fluid (FIG. 7F)” value (4 h post-zymosan) is reported as 51%. Where the note is “C15 1 h prior to zymosan, 4 h”, the “Decrease in monocyte levels (FIG. 7D)” value was determined as 62% and the “Decrease in neutrophil numbers (FIG. 7C)” value was found to be 63%. Moreover, the “Monocyte levels (FIG. 7D)” value (C15 1 h prior to zymosan, 4 h, zymosan alone 0.69×10^6) is 0.30×10^6. For the same sequence, the “Neutrophil numbers (FIG. 7C)” value (C15 1 h prior to zymosan, 4 h, zymosan alone 1.9×10^6) is 0.78×10^6. Under setting [3], the “Decrease in monocyte recruitment, C15 post-treatment (FIG. 7G)” value is 42% and the “Decrease in neutrophil recruitment, C15 post-treatment (FIG. 7G)” value came to 60%. For the same sequence, where the note is “C15 2 h post-zymosan, lavage 4 h post-zymosan, zymosan alone 0.69×10^6”, the “Monocyte number, C15 post-treatment (FIG. 7G)” value is on record as 0.42×10^6 cells. The “Neutrophil number, C15 post-treatment (FIG. 7G)” value (C15 2 h post-zymosan, lavage 4 h post-zymosan, zymosan alone 1.9×10^6) is recorded as 0.83×10^6 cells. Further, where the note is “mouse, in vivo”, the “Dose with efficacy against sterile peritonitis in mice” value came out at 0.00032 µg/kg. In addition, for the setting “single i.p. dose, 4 h post-zymosan”, the “Dose giving maximal reduction in zymosan-elicited neutrophil and monocyte recruitment” value was 8 pg/mouse.
